# The source made the active and inactive calls. The rule behind the calls is not given here.
# Tests used:
# Format in all cases: functional
# Pseudomonas aeruginosa [1] = test: Antibacterial activity against Pseudomonas aeruginosa assessed as diameter of inhibition zone at 100 ug/well after 24 hrs by agar well diffusion method; details: for zone of inhibition at 100 µg/disc: read-out: DIZ
# Bacillus subtilis [2] = test: Antibacterial activity against Bacillus subtilis assessed as diameter of inhibition zone at 100 ug/well after 24 hrs by agar well diffusion method; details: for zone of inhibition at 100 µg/disc: read-out: DIZ
# Staphylococcus aureus [3] = test: Antibacterial activity against Staphylococcus aureus assessed as diameter of inhibition zone at 12.5 ug/well after 24 hrs by agar well diffusion method; details: for zone of inhibition at 12.5 µg/disc: read-out: DIZ
# Klebsiella pneumoniae [4] = test: Antibacterial activity against Klebsiella pneumoniae assessed as diameter of inhibition zone at 25 ug/well after 24 hrs by agar well diffusion method; details: for zone of inhibition at 25 µg/disc: read-out: DIZ
# Penicillium chrysogenum [5] = test: Antifungal activity against Penicillium chrysogenum assessed as diameter of inhibition zone at 50 ug/well after 48 hrs by agar well diffusion method; details: for zone of inhibition at 50 µg/disc: read-out: DIZ
# Aspergillus niger [6] = test: Antifungal activity against Aspergillus niger assessed as diameter of inhibition zone at 12.5 ug/well after 48 hrs by agar well diffusion method; details: for zone of inhibition at 12.5 µg/disc: read-out: DIZ
# Klebsiella pneumoniae [7] = test: Antibacterial activity against Klebsiella pneumoniae assessed as diameter of inhibition zone at 100 ug/well after 24 hrs by agar well diffusion method; details: for zone of inhibition at 100 µg/disc: read-out: DIZ
# Aspergillus niger [8] = test: Antifungal activity against Aspergillus niger assessed as diameter of inhibition zone at 100 ug/well after 48 hrs by agar well diffusion method; details: read-out: DIZ
# Pseudomonas aeruginosa [9] = test: Antibacterial activity against Pseudomonas aeruginosa assessed as diameter of inhibition zone at 25 ug/well after 24 hrs by agar well diffusion method; details: for zone of inhibition at 25 µg/disc: read-out: DIZ
# Staphylococcus aureus [10] = test: Antibacterial activity against Staphylococcus aureus assessed as diameter of inhibition zone at 50 ug/well after 24 hrs by agar well diffusion method; details: for zone of inhibition at 50 µg/disc: read-out: DIZ
# Aspergillus niger [11] = test: Antifungal activity against Aspergillus niger assessed as diameter of inhibition zone at 50 ug/well after 48 hrs by agar well diffusion method; details: read-out: DIZ
# Penicillium chrysogenum [12] = test: Antifungal activity against Penicillium chrysogenum assessed as diameter of inhibition zone at 25 ug/well after 48 hrs by agar well diffusion method; details: for zone of inhibition at 25 µg/disc: read-out: DIZ
# Bacillus subtilis [13] = test: Antibacterial activity against Bacillus subtilis assessed as diameter of inhibition zone at 50 ug/well after 24 hrs by agar well diffusion method; details: for zone of inhibition at 50 µg/disc: read-out: DIZ
# Staphylococcus aureus [14] = test: Antibacterial activity against Staphylococcus aureus assessed as diameter of inhibition zone at 25 ug/well after 24 hrs by agar well diffusion method; details: for zone of inhibition at 25 µg/disc: read-out: DIZ
# Pseudomonas aeruginosa [15] = test: Antibacterial activity against Pseudomonas aeruginosa assessed as diameter of inhibition zone at 12.5 ug/well after 24 hrs by agar well diffusion method; details: for zone of inhibition at 12.5 µg/disc: read-out: DIZ
# Pseudomonas aeruginosa [16] = test: Antibacterial activity against Pseudomonas aeruginosa assessed as diameter of inhibition zone at 50 ug/well after 24 hrs by agar well diffusion method; details: for zone of inhibition at 50 µg/disc: read-out: DIZ
# Bacillus subtilis [17] = test: Antibacterial activity against Bacillus subtilis assessed as diameter of inhibition zone at 12.5 ug/well after 24 hrs by agar well diffusion method; details: for zone of inhibition at 12.5 µg/disc: read-out: DIZ
# Bacillus subtilis [18] = test: Antibacterial activity against Bacillus subtilis assessed as diameter of inhibition zone at 25 ug/well after 24 hrs by agar well diffusion method; details: for zone of inhibition at 25 µg/disc: read-out: DIZ
# Penicillium chrysogenum [19] = test: Antifungal activity against Penicillium chrysogenum assessed as diameter of inhibition zone at 12.5 ug/well after 48 hrs by agar well diffusion method; details: for zone of inhibition at 12.5 µg/disc: read-out: DIZ
# Klebsiella pneumoniae [20] = test: Antibacterial activity against Klebsiella pneumoniae assessed as diameter of inhibition zone at 12.5 ug/well after 24 hrs by agar well diffusion method; details: for zone of inhibition at 12.5 µg/disc: read-out: DIZ
# Aspergillus niger [21] = test: Antifungal activity against Aspergillus niger assessed as diameter of inhibition zone at 25 ug/well after 48 hrs by agar well diffusion method; details: for zone of inhibition at 25 µg/disc: read-out: DIZ
# Klebsiella pneumoniae [22] = test: Antibacterial activity against Klebsiella pneumoniae assessed as diameter of inhibition zone at 50 ug/well after 24 hrs by agar well diffusion method; details: for zone of inhibition at 50 µg/disc: read-out: DIZ
# Penicillium chrysogenum [23] = test: Antifungal activity against Penicillium chrysogenum assessed as diameter of inhibition zone at 100 ug/well after 48 hrs by agar well diffusion method; details: for zone of inhibition at 100 µg/disc: read-out: DIZ
# Staphylococcus aureus [24] = test: Antibacterial activity against Staphylococcus aureus assessed as diameter of inhibition zone at 100 ug/well after 24 hrs by agar well diffusion method; details: for zone of inhibition at 100 µg/disc: read-out: DIZ
SMILES,zone of inhibition at 100 µg/disc (Pseudomonas aeruginosa [1]) [mm],zone of inhibition at 100 µg/disc (Bacillus subtilis [2]) [mm],diameter of the inhibition zone (DIZ) (Staphylococcus aureus [3]),zone of inhibition at 25 µg/disc (Klebsiella pneumoniae [4]) [mm],zone of inhibition at 50 µg/disc (Penicillium chrysogenum [5]) [mm],zone of inhibition at 12.5 µg/disc (Aspergillus niger [6]) [mm],zone of inhibition at 100 µg/disc (Klebsiella pneumoniae [7]) [mm],zone of inhibition at 100 µg/disc (Aspergillus niger [8]) [mm],zone of inhibition at 25 µg/disc (Pseudomonas aeruginosa [9]) [mm],diameter of the inhibition zone (DIZ) (Staphylococcus aureus [10]),zone of inhibition at 50 µg/disc (Aspergillus niger [11]) [mm],zone of inhibition at 25 µg/disc (Penicillium chrysogenum [12]) [mm],diameter of the inhibition zone (DIZ) (Bacillus subtilis [13]),diameter of the inhibition zone (DIZ) (Staphylococcus aureus [14]),zone of inhibition at 12.5 µg/disc (Pseudomonas aeruginosa [15]) [mm],zone of inhibition at 50 µg/disc (Pseudomonas aeruginosa [16]) [mm],zone of inhibition at 12.5 µg/disc (Klebsiella pneumoniae [20]) [mm],zone of inhibition at 25 µg/disc (Aspergillus niger [21]) [mm],zone of inhibition at 50 µg/disc (Klebsiella pneumoniae [22]) [mm],zone of inhibition at 100 µg/disc (Penicillium chrysogenum [23]) [mm],further results
Cc1cc(SCc2nnc(-c3ccc(Br)cc3)o2)nc(SCc2nnc(-c3ccc(Br)cc3)o2)n1,15,8,inactive,10,9,13,15,19,11,inactive,17,7,inactive,inactive,9,13,8,15,12,11,diameter of the inhibition zone (DIZ) (Bacillus subtilis [17]): inactive; diameter of the inhibition zone (DIZ) (Bacillus subtilis [18]): inactive; diameter of the inhibition zone (DIZ) (Penicillium chrysogenum [19]): inactive; diameter of the inhibition zone (DIZ) (Staphylococcus aureus [24]): inactive
Cc1cc(SCc2nnc(-c3ccccc3)n2N)nc(SCc2nnc(-c3ccccc3)n2N)n1,23,17,–,19,14,17,24,24,16,–,21,12,–,–,14,19,17,19,22,16,zone of inhibition at 12.5 µg/disc (Staphylococcus aureus [3]): 8 mm; zone of inhibition at 50 µg/disc (Staphylococcus aureus [10]): 10 mm; zone of inhibition at 50 µg/disc (Bacillus subtilis [13]): 14 mm; zone of inhibition at 25 µg/disc (Staphylococcus aureus [14]): 9 mm; zone of inhibition at 12.5 µg/disc (Bacillus subtilis [17]): 10 mm; zone of inhibition at 25 µg/disc (Bacillus subtilis [18]): 12 mm; zone of inhibition at 12.5 µg/disc (Penicillium chrysogenum [19]): 11 mm; zone of inhibition at 100 µg/disc (Staphylococcus aureus [24]): 12 mm
Cc1cc(SCc2nnc(-c3ccccc3)o2)nc(SCc2nnc(-c3ccccc3)o2)n1,14,7,inactive,7,11,14,12,21,9,inactive,18,10,inactive,inactive,7,11,–,16,9,13,diameter of the inhibition zone (DIZ) (Bacillus subtilis [17]): inactive; diameter of the inhibition zone (DIZ) (Bacillus subtilis [18]): inactive; zone of inhibition at 12.5 µg/disc (Penicillium chrysogenum [19]): 8 mm; diameter of the inhibition zone (DIZ) (Klebsiella pneumoniae [20]): inactive; diameter of the inhibition zone (DIZ) (Staphylococcus aureus [24]): inactive
COc1ccc(-c2nnc(CSc3cc(C)nc(SCc4nnc(-c5ccc(OC)cc5)n4N)n3)n2N)cc1,–,–,inactive,–,–,–,–,10,–,inactive,8,–,inactive,inactive,–,–,–,–,–,–,diameter of the inhibition zone (DIZ) (Pseudomonas aeruginosa [1]): inactive; diameter of the inhibition zone (DIZ) (Bacillus subtilis [2]): inactive; diameter of the inhibition zone (DIZ) (Klebsiella pneumoniae [4]): inactive; diameter of the inhibition zone (DIZ) (Penicillium chrysogenum [5]): inactive; diameter of the inhibition zone (DIZ) (Aspergillus niger [6]): inactive; diameter of the inhibition zone (DIZ) (Klebsiella pneumoniae [7]): inactive; diameter of the inhibition zone (DIZ) (Pseudomonas aeruginosa [9]): inactive; diameter of the inhibition zone (DIZ) (Penicillium chrysogenum [12]): inactive; diameter of the inhibition zone (DIZ) (Pseudomonas aeruginosa [15]): inactive; diameter of the inhibition zone (DIZ) (Pseudomonas aeruginosa [16]): inactive; diameter of the inhibition zone (DIZ) (Bacillus subtilis [17]): inactive; diameter of the inhibition zone (DIZ) (Bacillus subtilis [18]): inactive; diameter of the inhibition zone (DIZ) (Penicillium chrysogenum [19]): inactive; diameter of the inhibition zone (DIZ) (Klebsiella pneumoniae [20]): inactive; diameter of the inhibition zone (DIZ) (Aspergillus niger [21]): inactive; diameter of the inhibition zone (DIZ) (Klebsiella pneumoniae [22]): inactive; diameter of the inhibition zone (DIZ) (Penicillium chrysogenum [23]): inactive; diameter of the inhibition zone (DIZ) (Staphylococcus aureus [24]): inactive
Cc1cc(SCc2nnc(-c3ccccc3)s2)nc(SCc2nnc(-c3ccccc3)s2)n1,24,18,–,21,12,15,26,22,19,–,19,10,–,–,15,20,20,17,23,14,zone of inhibition at 12.5 µg/disc (Staphylococcus aureus [3]): 10 mm; zone of inhibition at 50 µg/disc (Staphylococcus aureus [10]): 12 mm; zone of inhibition at 50 µg/disc (Bacillus subtilis [13]): 15 mm; zone of inhibition at 25 µg/disc (Staphylococcus aureus [14]): 11 mm; zone of inhibition at 12.5 µg/disc (Bacillus subtilis [17]): 11 mm; zone of inhibition at 25 µg/disc (Bacillus subtilis [18]): 13 mm; zone of inhibition at 12.5 µg/disc (Penicillium chrysogenum [19]): 9 mm; zone of inhibition at 100 µg/disc (Staphylococcus aureus [24]): 13 mm
Cc1ccc(-c2nnc(CSc3cc(C)nc(SCc4nnc(-c5ccc(C)cc5)s4)n3)s2)cc1,19,13,inactive,16,–,9,20,15,12,inactive,13,–,–,inactive,10,15,14,11,18,–,diameter of the inhibition zone (DIZ) (Penicillium chrysogenum [5]): inactive; diameter of the inhibition zone (DIZ) (Penicillium chrysogenum [12]): inactive; zone of inhibition at 50 µg/disc (Bacillus subtilis [13]): 11 mm; zone of inhibition at 12.5 µg/disc (Bacillus subtilis [17]): 8 mm; zone of inhibition at 25 µg/disc (Bacillus subtilis [18]): 10 mm; diameter of the inhibition zone (DIZ) (Penicillium chrysogenum [19]): inactive; diameter of the inhibition zone (DIZ) (Penicillium chrysogenum [23]): inactive; zone of inhibition at 100 µg/disc (Staphylococcus aureus [24]): 8 mm
Cc1cc(SCc2nnc(-c3ccc(Br)cc3)s2)nc(SCc2nnc(-c3ccc(Br)cc3)s2)n1,29,24,–,26,17,22,31,30,23,–,26,15,–,–,19,25,24,24,28,20,zone of inhibition at 12.5 µg/disc (Staphylococcus aureus [3]): 11 mm; zone of inhibition at 50 µg/disc (Staphylococcus aureus [10]): 15 mm; zone of inhibition at 50 µg/disc (Bacillus subtilis [13]): 21 mm; zone of inhibition at 25 µg/disc (Staphylococcus aureus [14]): 13 mm; zone of inhibition at 12.5 µg/disc (Bacillus subtilis [17]): 17 mm; zone of inhibition at 25 µg/disc (Bacillus subtilis [18]): 19 mm; zone of inhibition at 12.5 µg/disc (Penicillium chrysogenum [19]): 13 mm; zone of inhibition at 100 µg/disc (Staphylococcus aureus [24]): 17 mm
Cc1ccc(-c2nnc(CSc3cc(C)nc(SCc4nnc(-c5ccc(C)cc5)o4)n3)o2)cc1,12,–,inactive,–,–,–,10,9,8,inactive,7,–,inactive,inactive,–,10,–,–,8,–,diameter of the inhibition zone (DIZ) (Bacillus subtilis [2]): inactive; diameter of the inhibition zone (DIZ) (Klebsiella pneumoniae [4]): inactive; diameter of the inhibition zone (DIZ) (Penicillium chrysogenum [5]): inactive; diameter of the inhibition zone (DIZ) (Aspergillus niger [6]): inactive; diameter of the inhibition zone (DIZ) (Penicillium chrysogenum [12]): inactive; diameter of the inhibition zone (DIZ) (Pseudomonas aeruginosa [15]): inactive; diameter of the inhibition zone (DIZ) (Bacillus subtilis [17]): inactive; diameter of the inhibition zone (DIZ) (Bacillus subtilis [18]): inactive; diameter of the inhibition zone (DIZ) (Penicillium chrysogenum [19]): inactive; diameter of the inhibition zone (DIZ) (Klebsiella pneumoniae [20]): inactive; diameter of the inhibition zone (DIZ) (Aspergillus niger [21]): inactive; diameter of the inhibition zone (DIZ) (Penicillium chrysogenum [23]): inactive; diameter of the inhibition zone (DIZ) (Staphylococcus aureus [24]): inactive

# Source: ChEMBL document CHEMBL4251634, “Synthesis and antimicrobial activity of pyrimidinyl 1,3,4-oxadiazoles, 1,3,4-thiadiazoles and 1,2,4-triazoles” (2018)
